In US20220257552A1, “METHODS OF PRESCREENING AND TREATING BREAST CANCERS WITH SELECTIVE ANDROGEN RECEPTOR MODULATORS” (priority 2021, published 2022):

Legend:
Assay type in all cases: cell-based
[1] = tested on: MDA-MB-231 triple negative breast cancer cells; test: SRB cell viability, MDA-MB-231 cells infected with AR adenovirus
Method: The SRB assay was used to determine cell number during cytotoxocity experiments. The following protocol was used: • 1. Cells were detached with 0.25% trypsin. • 2. Experimental cultures were cultured in 96-well microtiter plates (200 μL growth medium per well; 1,000-200,000 cells per well). • 3. Cultures were fixed with 50 μL 50% TCA (4° C.). (see cell fixation protocol for details). • 4. Fixed cells were stained with 50 μL 0.4% (wt/vol) SRB in 1% acetic acid for 10 minutes. • 5. SRB was removed and the cultures were quickly* rinsed 5 times with 1% acetic acid to remove unbound dye.** • 6. Cultures were air-dried overnight until there was no visible moisture. • 7. The cellular protein-bound SRB was dissolved with 200 μL unbuffered Tris base (10 mM, pH 10.5) for 30 minutes on a rocking platform shaker. • 8. Absorbance was read at 540 nm. * quickly performing rinsing process was to prevent desorption of protein-bound SRB ** completely removed residual wash solution by sharply flicking plates over sink.
The following protocol was used for fixing cells: • a. 50 μL of 50% TCA (4° C.) was gently layered on the top of growth medium in each well to make a final TCA concentration of 10%. • b. Cultures were incubated at 4° C. for 1 hour. • c. Cultures were washed 5 times with tap water to remove TCA, growth medium, low-molecular-weight metabolites, and serum protein. • d. Plates were air-dried until there was no visible moisture.
Cells were treated in charcoal stripped FBS (FIGS. 4A, 4C, 4E, 4G, 4I, 4K, 4M and 4O) or full serum (FIGS. 4B, 4D, 4F, 4H, 4J, 4L, 4N and 4P) for 3 days, fixed and stained with […] (SRB) to measure cell viability. Anti-proliferative IC50 values were calculated in breast cancer cells and compared to transactivation values, i.e., EC50 (agonists) and IC50 (antagonists) values, generated in HEK-293 cells.

HCI-13 tumor fragments = test: HCI-13 ex vivo sponge culture, real time PCR; conditions: 3 days
Method: HCI-13 tumors grown in female mice were allowed to reach 500-1000 mm^3 before the animals were sacrificed and the tumors were excised to be used for sponge culture. Patient specimens frozen in liquid nitrogen in freezing medium were used for sponge culture. […] Tumors were sliced into small pieces (˜1 mm^3) and incubated on pre-soaked gelatin sponges (5 fragments/sponge) in 12 well plates containing 1.5 mL medium (MEM+10% FBS+2 mM L-glutamine+10 μg/mL insulin+10 μg/mL hydrocortisone+penicillin:streptomycin). The cultures were performed in triplicates for HCI-13 and singly for patient specimens. Pooled samples (n=5/sponge) from each sponge constituted one sample. Tissues were harvested after 3 days of treatment, RNA extracted, and expression of various genes measured. Although the same procedure was adopted for specimens obtained from breast cancer patients, the specimens were cultured singly (n=5/sponge=one sample) and not in triplicates as performed for HCI-13.

MCF7 palboR cells = test: Proliferation of palbociclib resistant MCF-7 cells; conditions: Formula IX 100 nM, Palb 125 nM
Description: Data were presented as mean values±s.e.m. […] Data represented the mean±s.e.m. of four replicate cell culture wells per condition. […] P values are indicated by gray asterisks, where ****P<0.0001 for all highlighted comparisons.
Tissue samples from an ER-positive, PR-negative, and HER2-negative (ER^+, PR^−, HER2^−) patient that progressed on (i.e., was resistant to) palbociclib were implanted into animal (NSG mice) models and grown as a patient-derived xenograft (PDX). […] This human tumor model also had amplification of the cyclin D1 (CCND1^Amp) gene which has been implicated as a driver of therapeutic resistance to CDKi. […] This is also observed in other models tested in vitro including a palbociclib resistant MCF-7 (MCF7 palbo^R) line (FIG. 44B).

ER-β = target: T1, ER-β (Rattus norvegicus, UniProt Q62986); test: ER-β transactivation in HEK-293 cells
T1 construct: expressed in transfected cells
Method: Rat GR, MR, PR, ER-α and ER-β were individually cloned into a pCR3.1 vector backbone. Sequencing was performed to verify the absence of any mutations. HEK-293 cells were plated at 90,000 cells per well of a 24 well plate in Dulbecco's Minimal Essential Media supplemented with 5% charcoal-stripped FBS. […] Luciferase assays were performed 48 h after transfection. Transcriptional activation values are represented as firefly luciferase normalized to renilla luciferase.

T1 sequence (Q62986 whole entry): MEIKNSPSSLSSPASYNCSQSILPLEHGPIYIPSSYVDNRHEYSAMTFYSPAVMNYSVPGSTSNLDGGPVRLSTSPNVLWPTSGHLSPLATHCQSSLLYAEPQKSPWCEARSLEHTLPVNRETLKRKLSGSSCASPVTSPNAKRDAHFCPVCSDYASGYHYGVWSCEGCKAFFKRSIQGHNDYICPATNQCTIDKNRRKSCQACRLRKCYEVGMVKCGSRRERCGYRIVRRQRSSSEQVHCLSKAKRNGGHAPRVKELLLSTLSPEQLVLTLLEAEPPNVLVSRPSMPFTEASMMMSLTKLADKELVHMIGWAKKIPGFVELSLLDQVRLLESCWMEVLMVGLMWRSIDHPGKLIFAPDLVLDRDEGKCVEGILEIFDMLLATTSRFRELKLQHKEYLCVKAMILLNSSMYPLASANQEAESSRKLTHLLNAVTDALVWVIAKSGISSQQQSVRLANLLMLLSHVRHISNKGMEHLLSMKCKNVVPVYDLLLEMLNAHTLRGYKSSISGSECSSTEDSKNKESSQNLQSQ

SMILES	growth inhibitory effects in the presence of bicalutamide ([1]; AR-positive cells, 10 μM bicalutamide)	cell growth ([1]; cells with AR, 3 days, SRB)	inhibition of ER-induced pS2 and PR gene expression (HCI-13 tumor fragments; 10 nM DHT, 1 μM Formula IX, 100 nM fulvestrant)	AR-target gene FKBP5 expression (HCI-13 tumor fragments)	MKI67 expression (HCI-13 tumor fragments)	anti-proliferative activity (MCF7 palboR cells)	17β-estradiol-induced ER-β activity, antagonist mode (ER-β; co-incubation)	ERβ-mediated transactivation, agonist mode (ER-β; highest tested concentration 1 μM)
C[C@](O)(COc1ccc(C#N)cc1)C(=O)Nc1ccc(C#N)c(C(F)(F)F)c1 [Formula IX, (S)—N-(4-Cyano-3-(trifluoromethyl)phenyl)-3-(4-cyanophenoxy)-2-hydroxy-2-methylpropanamide]	weakened growth inhibitory effects	inhibited	effective	induced	inhibited	modest activity	–	–
C[C@](O)(COc1ccc(C#N)cc1)C(=O)Nc1ccc(C#N)c(Cl)c1 [Formula VIII, (S)—N-(3-chloro-4-cyanophenyl)-3-(4-cyanophenoxy)-2-hydroxy-2-methylpropanamide]	–	–	–	–	–	–	failed to alter	failed to activate
